Data published in ChEMBL document CHEMBL1201862, “PubChem BioAssay data set” (2004).
The source made the active and inactive calls.

What was measured:
[1] = Luminescence Cell-Based Dose Retest to Confirm Inhibitors of Cancer Stem Cells. [Related pubchem assays (depositor defined):AID2717, AID2721]; type: functional; conditions: Homo sapiens
[2] = target: Dual specificity protein kinase CLK1 (Homo sapiens, UniProt P49759); assay: CLK1 kinase inhibitors, off-target check, dose response, selectivity assay for Dyrk1A inhibitor project, biochemical, cherry-picked samples (AID 588811)
[3] = target: Dual specificity tyrosine-phosphorylation-regulated kinase 1A (Rattus norvegicus, UniProt Q63470); type: biochemical, Homo sapiens
[4] = HeLa cell cytotoxicity, dose response, cytotoxicity control for MgcRacGAP inhibitor project (AID 624300); type: functional
[5] = target: Glycogen synthase kinase-3 alpha (Homo sapiens, UniProt P49840); assay: human GSK3 alpha kinase inhibition, dose response, selectivity assay for GSK3beta inhibitor project, biochemical, microfluidics, dry powder samples, set 2 (AID 623978); type: functional
[6] = test system: HeLa; assay: HeLa cell cytotoxicity, dose response, cytotoxicity control for MITF activator project, CellTiter-Glo luminescence, cherry-pick samples (AID 540259); type: functional, cell-based; conditions: Homo sapiens
[7] = target: Cyclin-dependent kinase 5/CDK5 activator 1 (Homo sapiens, UniProt Q00535); assay: CDK5-p25 kinase inhibition, dose response, selectivity assay for GSK3beta inhibitor project, biochemical, microfluidic mobility shift, dry powder, set 2 (AID 623979); type: functional
[8] = target: Glycogen synthase kinase-3 beta (Homo sapiens, UniProt P49841); assay: GSK3beta kinase inhibitors, dose response, biochemical, microfluidics, dry powder samples, set 2 (AID 623989); type: functional
[9] = cytotoxicity in HMLE control line with eGFP shRNA, dose response, counter-screen for HMLE_sh_ECad selective toxicity project, cell-based, HMLE_sh_eGFP, luminescence (AID 463074); type: functional, Homo sapiens;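 further: HMLE human mammary epithelial cells expressing control shRNA against eGFP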
[10] = target: T1, Rac GTPase-activating protein 1 (Homo sapiens, UniProt Q9H0H5); assay: MgcRacGAP GTPase-activating activity inhibitors, confirmation, biochemical, ADP Hunter fluorescence, primary and confirmatory (AID 624330); type: functional
T1 sequence (Q9H0H5 whole entry): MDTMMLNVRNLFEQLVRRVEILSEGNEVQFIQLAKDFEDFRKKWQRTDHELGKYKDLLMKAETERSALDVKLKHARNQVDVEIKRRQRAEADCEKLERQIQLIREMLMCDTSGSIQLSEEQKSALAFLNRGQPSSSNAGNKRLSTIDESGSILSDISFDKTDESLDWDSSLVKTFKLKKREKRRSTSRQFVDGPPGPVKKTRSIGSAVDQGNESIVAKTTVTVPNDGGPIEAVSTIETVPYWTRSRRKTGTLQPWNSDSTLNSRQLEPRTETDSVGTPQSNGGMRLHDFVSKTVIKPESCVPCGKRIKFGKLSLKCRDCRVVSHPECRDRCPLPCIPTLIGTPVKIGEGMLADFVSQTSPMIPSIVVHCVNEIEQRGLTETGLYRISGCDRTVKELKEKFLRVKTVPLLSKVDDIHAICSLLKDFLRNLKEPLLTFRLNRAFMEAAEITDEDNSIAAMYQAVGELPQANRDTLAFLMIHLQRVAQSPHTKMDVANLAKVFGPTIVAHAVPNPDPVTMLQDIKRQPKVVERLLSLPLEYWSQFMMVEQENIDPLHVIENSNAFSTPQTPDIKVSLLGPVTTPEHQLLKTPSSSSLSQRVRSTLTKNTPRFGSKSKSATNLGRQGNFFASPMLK

[11] = target: T2, Neuropeptides B/W receptor type 1 (Homo sapiens, UniProt P48145); assay: GPR7 antagonist potency, late-stage follow-up, cell-based, fluorescence, dose response, set 5 (AID 588566); type: functional
T2 sequence (P48145 whole entry): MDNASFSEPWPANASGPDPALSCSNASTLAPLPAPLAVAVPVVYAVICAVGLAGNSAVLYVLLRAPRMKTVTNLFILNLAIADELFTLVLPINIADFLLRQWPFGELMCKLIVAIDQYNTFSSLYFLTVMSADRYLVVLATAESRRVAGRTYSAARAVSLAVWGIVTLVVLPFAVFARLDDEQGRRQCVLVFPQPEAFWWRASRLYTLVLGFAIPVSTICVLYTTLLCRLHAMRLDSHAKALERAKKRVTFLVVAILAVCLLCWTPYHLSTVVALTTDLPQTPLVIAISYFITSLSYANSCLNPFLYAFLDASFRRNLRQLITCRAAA

[12] = target: Melanin-concentrating hormone receptor 1 (Homo sapiens, UniProt Q99705); assay: Late-stage fluorescence-based counterscreen for antagonists of the G-protein coupled receptor 7 (GPR7): cell-based dose response assay to identify antagonists of the melanin-concentrating hormone receptor 1 (MCHR1) Set 5.; type: functional
Sequence of Melanin-concentrating hormone receptor 1 (Q99705 whole entry): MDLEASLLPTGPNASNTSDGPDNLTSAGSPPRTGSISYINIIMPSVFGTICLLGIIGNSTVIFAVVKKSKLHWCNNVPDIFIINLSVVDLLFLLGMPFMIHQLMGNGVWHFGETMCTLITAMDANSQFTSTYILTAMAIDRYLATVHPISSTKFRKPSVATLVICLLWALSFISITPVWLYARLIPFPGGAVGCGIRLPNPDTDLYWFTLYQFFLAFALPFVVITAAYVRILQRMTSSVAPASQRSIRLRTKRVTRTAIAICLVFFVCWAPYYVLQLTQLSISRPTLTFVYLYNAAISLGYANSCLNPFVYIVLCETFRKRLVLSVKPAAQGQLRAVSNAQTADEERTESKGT

Sequence of Glycogen synthase kinase-3 beta (P49841 whole entry): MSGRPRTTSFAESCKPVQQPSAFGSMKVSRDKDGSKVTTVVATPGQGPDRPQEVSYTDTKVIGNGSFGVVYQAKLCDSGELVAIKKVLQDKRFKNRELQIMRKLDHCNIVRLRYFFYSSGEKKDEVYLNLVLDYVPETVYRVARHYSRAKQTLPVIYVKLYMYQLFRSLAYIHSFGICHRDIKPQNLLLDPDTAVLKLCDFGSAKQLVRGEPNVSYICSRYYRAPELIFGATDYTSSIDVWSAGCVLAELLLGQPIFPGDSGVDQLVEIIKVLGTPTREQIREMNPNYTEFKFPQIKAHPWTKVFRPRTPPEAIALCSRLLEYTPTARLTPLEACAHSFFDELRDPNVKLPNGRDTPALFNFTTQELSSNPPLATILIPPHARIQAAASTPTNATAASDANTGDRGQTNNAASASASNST
Sequence of Cyclin-dependent kinase 5/CDK5 activator 1 (Q00535 whole entry): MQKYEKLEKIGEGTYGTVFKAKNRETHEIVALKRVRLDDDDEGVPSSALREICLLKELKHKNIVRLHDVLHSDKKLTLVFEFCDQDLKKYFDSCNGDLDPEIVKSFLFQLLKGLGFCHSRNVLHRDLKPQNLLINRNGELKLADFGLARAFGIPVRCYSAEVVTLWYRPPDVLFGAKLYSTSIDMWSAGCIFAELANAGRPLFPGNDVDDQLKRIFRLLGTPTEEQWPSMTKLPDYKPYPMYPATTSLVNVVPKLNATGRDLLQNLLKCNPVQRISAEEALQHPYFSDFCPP
Sequence of Cyclin-dependent kinase 5/CDK5 activator 1 (Q15078 whole entry, further chain): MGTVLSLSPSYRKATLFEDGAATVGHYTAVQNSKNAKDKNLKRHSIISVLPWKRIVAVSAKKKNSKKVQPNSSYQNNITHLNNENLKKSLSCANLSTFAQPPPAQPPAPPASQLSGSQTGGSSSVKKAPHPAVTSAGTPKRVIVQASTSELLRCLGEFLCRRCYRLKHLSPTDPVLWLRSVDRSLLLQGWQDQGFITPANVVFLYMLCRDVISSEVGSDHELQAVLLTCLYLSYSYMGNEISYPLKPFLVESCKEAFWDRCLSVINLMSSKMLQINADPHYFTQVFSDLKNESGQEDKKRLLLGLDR
Sequence of Glycogen synthase kinase-3 alpha (P49840 whole entry): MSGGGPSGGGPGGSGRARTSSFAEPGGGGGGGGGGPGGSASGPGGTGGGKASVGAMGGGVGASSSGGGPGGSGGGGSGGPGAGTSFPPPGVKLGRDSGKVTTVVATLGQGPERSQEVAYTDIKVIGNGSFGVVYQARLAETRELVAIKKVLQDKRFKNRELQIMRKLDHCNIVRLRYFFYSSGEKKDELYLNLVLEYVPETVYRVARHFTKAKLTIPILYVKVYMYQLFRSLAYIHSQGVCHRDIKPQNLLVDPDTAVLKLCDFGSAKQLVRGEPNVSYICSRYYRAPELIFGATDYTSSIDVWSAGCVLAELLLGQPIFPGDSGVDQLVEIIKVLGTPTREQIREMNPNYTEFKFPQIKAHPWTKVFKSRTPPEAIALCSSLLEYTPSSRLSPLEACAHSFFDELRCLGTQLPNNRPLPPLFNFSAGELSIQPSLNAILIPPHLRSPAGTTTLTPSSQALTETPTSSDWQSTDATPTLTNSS
Sequence of Dual specificity protein kinase CLK1 (P49759 whole entry): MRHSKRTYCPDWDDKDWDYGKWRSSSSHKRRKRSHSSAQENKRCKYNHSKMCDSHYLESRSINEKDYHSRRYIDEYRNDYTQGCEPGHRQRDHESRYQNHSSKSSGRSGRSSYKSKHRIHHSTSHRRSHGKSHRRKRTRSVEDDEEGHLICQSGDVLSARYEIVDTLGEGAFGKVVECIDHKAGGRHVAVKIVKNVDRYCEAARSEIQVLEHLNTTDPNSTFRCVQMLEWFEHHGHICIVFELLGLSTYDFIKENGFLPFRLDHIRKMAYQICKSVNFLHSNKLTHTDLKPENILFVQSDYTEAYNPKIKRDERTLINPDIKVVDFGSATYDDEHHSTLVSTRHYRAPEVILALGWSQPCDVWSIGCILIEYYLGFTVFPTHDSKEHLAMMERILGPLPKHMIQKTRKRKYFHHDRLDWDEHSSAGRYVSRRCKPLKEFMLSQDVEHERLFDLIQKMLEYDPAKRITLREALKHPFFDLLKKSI

COc1cccc(Nc2nc(-c3ccc(O)cc3)cs2)c1
active: AC50 [1] 19.6 µM | AC50 [2] 7.47 µM | AC50 [3] 10.2 µM | CC50 [4] 100 µM | AC50 [5] 8.21 µM | AC50 [6] 54.8 µM | AC50 [7] 33 µM | AC50 [8] 2.8 µM | AC50 [9] 34.7 µM | IC50 [10] 66.1 µM

COc1ccc(Oc2c(Cl)cnn(CC(=O)c3ccc(Cl)cc3Cl)c2=O)cc1
active: IC50 [11] 1.85 µM | IC50 [12] 5.47 µM
